Source: patent US20240002424A1, “HEXOSAMINE COMPOUNDS AND METHODS THEREOF” (National Institute of Immunology, priority 2021, published 2024)

Key:
Assay type in all cases: cell-based, human
[1] = tested on: HL-60 cells; experiment: Total and glycoside bound sialic acids by periodate-resorcinol assay; conditions: 100 μM, 48 h
Protocol: Total sialic acids were measured following reported procedures. HL-60 cells (3.0×10^5 cells/mL in 10 mL complete medium in 10 cm diameter Petri dishes) were incubated with D, 1a, 1b, 1c, 1d, 1e, 1f, 1g, 2a, or 2b (100 mM each), along with untreated (U) controls. After 48 h, cells were harvested, washed with PBS (3×5.0 mL; 3000×g, for 2.0 min), aliquoted to 2×10^6 cells per sample and resuspended in PBS (150 mL) in 1.5 mL microcentrifuge tubes. Cells were lyzed by three freeze-thaw cycles and the total lysates were subjected to periodate-resorcinol assay. Briefly, lysates (150 mL) were treated with 0.4 M aqueous periodic acid (6.67 mM) or (2.5 mL) and incubated either on ice for 15 min (for measurement of total sialic acids) or at 37° C. for 1.0 h (for measurement of glycoconjugate bound sialic acids). About 10 mL of reagent cocktail was prepared using 6% w/v of aqueous resorcinol (1.0 mL), 2.5 mM copper (II) sulfate (1.0 mL), 44% of concentrated hydrochloric acid (4.4 mL), and water (3.6 mL). The mixture was then treated with the reagent cocktail (250 mL per sample), boiled at 100° C. for 10 min, rapidly quenched in an ice-bath and treated with tert-butanol (250 mL). The contents were centrifuged and the supernatants were aliquoted (200 mL) into 96-well plates and the absorbance at 630 nm was measured. At least three replicates were prepared for each condition.

[2] = tested on: Jurkat cells; experiment: NeuAz expression on the cell surface by SPAAC with DBCO-Cy5 and flow cytometry, competition with Ac4ManNAz (1c); conditions: for NeuAz expression / DBCO-Cy5 signal, compound alone: 50 μM alone; for extent of suppression of NeuAz expression by 1c: 50 μM co-incubated with 1c, study parallel to GalNAz; for NeuAz expression, % of controls: 50 μM with 1c 50 μM, simultaneous addition; for reduction of NeuAz, simultaneous addition: analogue 10 μM and 1c 50 μM added simultaneously
Protocol: FIG. 5 illustrates competitive processing by compounds of the present invention (ManNAc compounds). ManNAc compounds competitively reduce the expression of N-azidoacetyl-D-neuraminic acid (NeuAz)-carrying sialoglycans through the metabolic processing of Ac4ManNAz. Jurkat (human T-lymphoma) cells were incubated with Ac4ManNAz (Z) (50 μM) alone, co-incubated with GL-2, GL-3, MA-2, or MA-3 (at various concentrations such as 10,
25, and 50 μM) for 24 h. Expression of N-azidoacetyl-D-neuraminic acid (NeuAz) on the cell surface sialoglycans was estimated using strain-promoted azide-alkyne cycloaddition (SPAAC) with DBCO-Cy5 and analyzed by flow cytometry. […] GL-2 was used for comparative study and the structure of this compound is as below.
Jurkat cells (3.0×10^5 cells/mL; 2.5 mL per well in 6-well plates) in complete medium were treated with either vehicle (D) or Compound 1c; Untreated Jurkat cells, without addition of vehicle, were also included as additional controls. Cells were harvested at 48 h, washed thrice with PBS (3×0.5 mL) (3000×g, 2.0 min). Prior to the last wash cells were counted and were aliquoted to 1.0×10^6 cells per sample in 1.5 mL microcentrifuge tubes and centrifuged. The cells were gently resuspended in PBS ([…]) and treated with DBCO-Cy5 ([…]) and incubated at 37° C. (on a Torrey-Pines dry heating bath with mild shaking). After one hour, the cells were washed using FSB (0.5 mL, 3000×g, 2.0 min, room temperature), resuspended in PBS (250 mL), treated with PI (2.5 mg/mL), and analyzed using BD FACSCanto and FACSDiva Version 6.1.3. The cells were gated for PI-negative population for 10,000 events. Two replicate samples were prepared for each conditions and each sample was counted twice.
Estimation of NeuAz expression by 1c in the presence of peracetylated ManNAc analogues: Jurkat cells (3.0×10^5 cells/mL in 3.0 mL per well in 6-well plates) were incubated with (i) D, (ii) 1a, 1b, 1c, or 1d alone (50 mM) or (iii) 1a, 1b, or 1d (50 mM) in combination with 1c (50 mM). After 24 h, cells were harvested, washed using FSB, aliquoted to 5.0×10^5 cells per sample, and processed as mentioned above for estimation of NeuAz expression using DBCO-Cy5 ([…]). Experiments using HL-60 cells were performed using the same procedure. […]
Effect of GlcNAc and ManNAc analogues on NeuAz expression: Jurkat cells were treated with 1a, 1b, 2a, or 2b (10, 25, and 50 mM for each analogue) in combination with 1c (50 mM). Cells treated with 1c (50 mM) alone were considered as a reference. After 24 h, cells were harvested, processed, labelled with DBCO-Cy5 ([…]), and analysed by flow cytometry as mentioned above.
In order to evaluate the metabolism, Jurkat (human T-lymphoma) cells were selected and incubated with ManNAc analogues either alone (50 μM) or in combination with 1c (50 μM) for 48 h. Expression of NeuAz on cell surface was estimated by flow cytometry through the copper-free bio-orthogonal strain-promoted azide-alkyne cycloaddition (SPAAC) reaction using dibenzocyclooctyne-Cy5 (DBCO-Cy5). The conditions for click reaction were optimized for various concentrations of DBCO-Cy5 and time course of SPAAC reaction in Jurkat cells. Based on the optimization results, incubation time of 30 min at 37° C. for 5.0×10^5 cells (pre-incubated with 1c for 48 h) with 20 μM of DBCO-Cy5 in 100 μL total volume for experiments with ManNAc analogues was chosen. […] In order to test the dose-dependency of this inhibitory effect on NeuAz expression and to establish competitive metabolic processing, Jurkat cells were first treated with either 1a or 1b (0-50 μM) followed by addition of 1c (50 μM) at 12 h and estimation of NeuAz at 48 h. As expected, the suppression of NeuAz expression was substantially higher when added with a 12 h delay compared to simultaneous addition, in a dose-dependent manner. […] By contrast simultaneous addition resulted only in a 10% reduction of NeuAz for both 1a and 1b (FIG. 6C and FIG. 7B).

[3] = tested on: HL-60 cells; experiment: Binding of mouse E-selectin-Fc chimera (mCD62E) to cells by flow cytometry; conditions: 50 μM, 72 h
Protocol: Effect of HexNAc analogues on the expression of E-selectin ligands: HL-60 cells (3.0×10^5 cells/mL in 2.5 mL complete medium in 6-well plates) were incubated with D, 1a, 1b, or 1d (50 mM), along with untreated controls. After 72 h, cells were harvested and washed with PBS (3×0.5 mL). Prior to the last wash, cells were counted and aliquoted into 5.0×10^5 cells per sample. Cells were stained with mCD62E-Fc chimera protein (10 mg/mL) in PBS (50 mL) at 4° C. After 1.0 h, cells were washed with PBS (2×0.5 mL) and stained with PEconjugated F(ab′)2 goat anti-human Fc in PBS (50 mL) at 4° C. After 1.0 h, cells were washed with PBS (2×0.5 mL) and resuspended in 0.85% saline (0.2 mL) containing Sytox Red (dilution 1:1000; stock concentration of 5.0 mM). Additionally, control samples of cells treated with only the secondary antibody were prepared. Two replicate samples were analyzed for each condition and each sample was counted twice by flow cytometry as mentioned above.

[4] = 50 μM co-incubated with 1c 50 μM, 48 h

| SMILES | decrease in glycoside bound sialic acid levels [1] | ratio of total sialic acids to glycoside bound sialic acids vs untreated cells [1] | NeuAz expression / DBCO-Cy5 signal, compound alone ([2]; 48 h) | NeuAz expression (1c alone taken as 100%) [2, 4] | extent of suppression of NeuAz expression by 1c [2] | NeuAz expression, % of controls ([2]; 24 h) | NeuAz expression upon co-incubation with Ac4ManNAz ([2]; Ac4ManNAz (Z) 50 μM plus analogue at 10, 25, 50 μM, 24 h, listed as MA-2) | reduction of NeuAz, simultaneous addition [2] | change in mCD62E binding with respect to untreated cells (in words) [3] | increase in mCD62E (E-selectin-Fc) binding with respect to untreated cells [3] | increase in glycoside bound sialic acid levels [1] | increase in total sialic acid levels vs untreated cells [1] | reduction of NeuAz expression [2, 4] |
| --- | --- | --- | --- | --- | --- | --- | --- | --- | --- | --- | --- | --- | --- |
| CC(=O)OC[C@H]1O[C@H](OC(C)=O)[C@@H](NC(=O)C2CC2)[C@@H](OC(C)=O)[C@@H]1OC(C)=O [Compound 1a, 1,3,4,6-tetra-O-acetyl-2-cyclopropanoylamino-2-deoxy-α-D-mannopyranose] | ~10% | higher ratios of free sialic acid | negligible signals | 60% | 50% | 60% | reduced competitively in a dose-dependent manner | 10% | no significant change |  |  |  |  |
| CC(=O)OC[C@H]1OC(OC(C)=O)[C@@H](NC(=O)C2CCC2)[C@@H](OC(C)=O)[C@@H]1OC(C)=O (stereo partly drawn) [Compound 1b, (3S,4R,5S,6R)-6-(acetoxymethyl)-3-(cyclobutanecarboxamido)tetrahydro-2H-pyran-2,4,5-triyl triacetate] | ~10% | higher ratios of free sialic acid | negligible signals | 65% | 50% | 50% |  | 10% |  | 2.3 fold |  |  |  |
| CC(=O)NC1C(OC(C)=O)OC(COC(C)=O)[C@@H](OC(C)=O)[C@@H]1OC(C)=O (stereo partly drawn) [Compound 1d, 1,3,4,6-tetra-O-acetyl-2-acetylamino-2-deoxy-α/β-D-mannopyranose] |  | higher ratios of free sialic acid | negligible signals | 30% |  |  |  |  | no significant change |  | ~10% | 2.0 fold | 70% |
